Assay results published in US5208344A, “Naphthalenepropionic acid derivatives as anti-inflammatory/antiallergic agents” (American Home Products Corporation, priority 1991, dated 1993).
Where two headings read alike, the source gives them in different places.

Tests used:
[1] = tested on: inflammatory mediator release; experiment: reverse passive Arthus pleurisy assay, inflammatory mediator release; assay type: in vivo, rat; settings: for ED50: Rattus norvegicus, po
Experimental: (§1) The compounds of the invention are further tested in the reverse passive Arthus pleurisy assay to evaluate their effectiveness in inflammatory mediator release and/or the fluid and cellular phases of an inflammatory response.
A reverse passive Arthus reaction is induced in the pleural cavity of male Lewis rats (150-200 g; fasted overnight prior to use) by the intravenous administration of bovine serum albumin (BSA; 4 mg/0.2 ml) followed 30 minutes later by the injection of rabbit anti-BSA (1 mg/0.2 ml; lyophilized IgG fraction; Organon Teknika, West Chester, PA) into the right pleural space under halothane anesthesia. […] Animals are sacrificed at either the time of peak eicosanoid production (i.e. 5 minutes after anti-BSA for immunoreactive TxB2, 10 minutes for immunoreactive LTB4, 20 minutes for immunoreactive LTC4) or at the time of peak neutrophil infiltration (4 hours after anti-BSA) by CO2 inhalation. The pleural cavity is then exposed, the fluid exudate removed by gentle vacuum aspiration and the volume of exudate is recorded. For the determination of cellular infiltration, the pleural cavity is rinsed with 3 ml of 0.1% EDTA in sterile saline, and the recovered wash is pooled with the exudate. Cell number is determined on a model ZBI Coulter counter. For determination of eicosanoid production, undiluted pleural exudate is microfuged and the supernatant is extracted with ethanol (8-10 times volume). Extracts are either stored at -20° C., or are evaporated to dryness under a stream of N2 and reconstituted in radioimmunoassay (RIA) buffer.
Eicosanoids are quantitated by RIA according to the procedure specified by the RIA kit manufacturer (Advanced Magnetics, Cambridge, MA). Briefly, 100 μl of ^3 H-labeled eicosanoid and 100 μl of specific antibody are sequentially added to 100 μl of extracted pleural exudate in BGG-phosphate buffer which contains 0.01 M phosphate, 0.1% bovine gamma globulin and 0.1% sodium azide at pH 7.0. Antibody-bound eicosanoid is separated form unbound eicosanoid by the addition of 750 μl of dextran (0.4%)-coated charcoal (0.4% Norit A) containing 0.1% sodium azide. The mixture is centrifuged at 2000 RPM at 5° C. for 15 minutes to pellet the charcoal and adsorbed unbound eicosanoid. Antibody-bound labeled eicosanoid is quantitated by counting in a liquid scintillation counter, and is correlated to concentration by a standard curve.
(§2) Inflammatory cells are expressed as 10^6 cells/ml, pleural exudate is expressed as ml of fluid, and the amount of eicosanoids in the pleural cavity is expressed as ng/ml of exudate. Mean±S.E.M. is determined for each group. Percent inhibition (% I) of cell number, exudate volume and eicosanoid production is calculated for vehicle-treated control groups, and the responses in drug-treated rats are then expressed as the mean $ I of control.

pleural inflammation = experiment: reverse passive Arthus pleurisy assay, pleural inflammation; assay type: in vivo; settings: rat; for ED30: po, 4 h; for ED30 / ED30 Fluid Exudation: p.o.
Experimental: as §1
A reverse passive Arthus reaction is induced in the pleural cavity of male Lewis rats (150-200 g; fasted overnight prior to use) by the intravenous administration of bovine serum albumin (BSA; 4 mg/0.2 ml) followed 30 minutes later by the injection of rabbit anti-BSA (1 mg/0.2 ml; lyophilized IgG fraction; Organon Teknika, West Chester, PA) into the right pleural space under halothane anesthesia. Drugs or vehicle (0.5% Tween-80) control are administered orally in a volume of 1 ml/100 g body weight at 1 hour prior to the anti-BSA. Animals are sacrificed at either the time of peak eicosanoid production (i.e. 5 minutes after anti-BSA for immunoreactive TxB2, 10 minutes for immunoreactive LTB4, 20 minutes for immunoreactive LTC4) or at the time of peak neutrophil infiltration (4 hours after anti-BSA) by CO2 inhalation. The pleural cavity is then exposed, the fluid exudate removed by gentle vacuum aspiration and the volume of exudate is recorded. For the determination of cellular infiltration, the pleural cavity is rinsed with 3 ml of 0.1% EDTA in sterile saline, and the recovered wash is pooled with the exudate. Cell number is determined on a model ZBI Coulter counter. For determination of eicosanoid production, undiluted pleural exudate is microfuged and the supernatant is extracted with ethanol (8-10 times volume). Extracts are either stored at -20° C., or are evaporated to dryness under a stream of N2 and reconstituted in radioimmunoassay (RIA) buffer.
as §2

5-lipoxygenase = molecular target: T1, 5-lipoxygenase (Rattus norvegicus, UniProt P12527); experiment: inhibition of 5-HETE synthesis by rat glycogen elicited polymorphonuclear leukocytes; assay type: cell-based; settings: read-out: % Inhibition of 5-LO (as 5-HETE)
T1 construct: Peritoneal PMN are obtained from female Wistar rats (150-250 g); endogenous in cells; host or cells: rat glycogen-elicited peritoneal polymorphonuclear leukocytes, intact
T1 sequence (P12527 1-673): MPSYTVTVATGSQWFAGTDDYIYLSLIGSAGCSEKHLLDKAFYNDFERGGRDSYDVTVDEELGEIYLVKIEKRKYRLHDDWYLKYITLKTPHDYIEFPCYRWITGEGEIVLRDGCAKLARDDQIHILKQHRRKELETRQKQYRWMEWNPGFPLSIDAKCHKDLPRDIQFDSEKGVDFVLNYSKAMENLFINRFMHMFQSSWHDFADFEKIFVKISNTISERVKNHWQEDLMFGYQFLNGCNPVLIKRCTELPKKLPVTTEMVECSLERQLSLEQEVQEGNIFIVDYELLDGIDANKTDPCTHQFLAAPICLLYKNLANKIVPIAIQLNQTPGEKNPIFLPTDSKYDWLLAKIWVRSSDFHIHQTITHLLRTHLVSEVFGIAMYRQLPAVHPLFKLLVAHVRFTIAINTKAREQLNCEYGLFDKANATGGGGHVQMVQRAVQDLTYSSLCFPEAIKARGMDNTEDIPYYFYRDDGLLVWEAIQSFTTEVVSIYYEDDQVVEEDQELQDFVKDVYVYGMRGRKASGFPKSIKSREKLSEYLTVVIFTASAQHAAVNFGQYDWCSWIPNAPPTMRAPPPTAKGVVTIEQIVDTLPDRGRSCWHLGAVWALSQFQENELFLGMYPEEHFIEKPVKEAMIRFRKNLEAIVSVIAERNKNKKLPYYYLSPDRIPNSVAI
Experimental: The assay of this Example measures the ability of the compounds of the invention to inhibit the synthesis of 5-HETE by rat glycogen elicited polymorphonuclear leukocytes.
(§3) Peritoneal PMN are obtained from female Wistar rats (150-250 g) that received an i.p. injection of 6% glycogen (10 ml). After 24 hours, rats are killed by CO2 asphysiation and peritoneal cells are harvested by peritoneal lavage using Ca^++ and MG^++ free Hanks' balanced salt solution (HBSS). The peritoneal exudate is centrifuged at 400 g for 10 minutes. After centrifugation, the lavaged fluid is removed and the cell pellet is resuspended in HBSS containing Ca^++ and MG^++ and 10 mM L-cysteine at a concentration of 2×10^7 cells/ml. To 1 ml portions of cell suspension, test drugs or vehicle are added and incubated at 37° C. for 10 minutes. Following this preincubation, the calcium ionophore (10 μM), a23187, is added together with 0.5 μM [14 C] arachidonic acid and further incubated for 10 minutes. The reaction is stopped by the addition of ice cold water (3 ml) and acidifying to pH 3.5. Lipoxygenase products are then extracted twice into diethyl ether. The pooled ether extracts are evaporated to dryness under nitrogen and the residue is redissolved in a small volume of methanol and spotted on aluminum backed pre-coated thin layer chromatographic plates. The samples are then cochromatographed with authentic reference 5-HETE in the solvent system - hexane: ether: acetic acid (50:50:3). After chromatography, the areas associated with 5-HETE standard are identified by autoradiography, cut out and quantitated by liquid scintillation.

cyclooxygenase = experiment: inhibition of synthesis of cyclooxygenase products TxB2 and PGE2 (rat polymorphonuclear leukocytes); assay type: cell-based; settings: 10 μM; rat PMN; negative = potentiation of PGE2 synthesis
Experimental: as §3
However, in order to determine cyclooxygenase activity, the samples are cochromatographed with authentic reference TxB2 and PGE2 in the solvent system ethyl acetate: formic acid (80:1) and the upper phase of ethyl acetate: isooctane: acetic acid: water (110:50:20:100). After chromatography, the areas associated with the TxB2 and PGE2 standards are identified by autoradiography, cut out and quantitated by liquid scintillation techniques.

LTD4 = molecular target: T2, LTD4 (Cavia porcellus, UniProt Q2NNR5); experiment: LTD4 antagonist activity in isolated guinea pig trachea; assay type: cell-based; settings: reference leukotriene antagonists
T2 construct: isolated guinea pig trachea; from tissue; host or cells: guinea pig tracheal rings
T2 sequence (Q2NNR5 1-340): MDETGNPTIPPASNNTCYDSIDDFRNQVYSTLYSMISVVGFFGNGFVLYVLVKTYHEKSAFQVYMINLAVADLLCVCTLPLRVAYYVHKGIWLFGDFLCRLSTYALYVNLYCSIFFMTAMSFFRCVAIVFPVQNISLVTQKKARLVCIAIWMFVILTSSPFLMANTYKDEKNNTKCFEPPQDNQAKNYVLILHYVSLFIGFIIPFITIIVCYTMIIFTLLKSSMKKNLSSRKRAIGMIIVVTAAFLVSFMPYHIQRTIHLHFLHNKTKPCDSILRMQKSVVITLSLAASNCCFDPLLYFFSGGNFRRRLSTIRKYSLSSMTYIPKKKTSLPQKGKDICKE
Experimental: The LTD4 antagonist activity of the compounds of the invention is assessed in the in vitro isolated guinea pig trachea assay. Male Hartley guinea pigs (350-400 g) are euthanized by a blow to the head, the neck is opened and the trachea removed. The trachea is maintained in aerated physiological salt solution, cleared of connective tissue and fat and cut into rings approximately 2 mm in width (usually containing two cartilaginous segments per ring). Two pieces of silk suture are then passed through the lumen of the tracheal ring and are tied around the cartilage, one on each side of the trachealis muscle. The tracheal ring is suspended between a glass hook and a force displacement transducer in a 10 ml organ bath for measurement of isometric tension. Tissues are maintained at 37° C. in aerated ([…] /5% CO2) physiological salt solution of the following composition: […] The tracheal rings are maintained at 2 g resting tension and equilibrated for 45 minutes (with frequence washing and readjustment of resting tension). The tracheal rings are first contracted by the addition of carbachol (3×10^-6 M), to determine tissue responsiveness and establish a reference contraction. On attainment of a stable level of contraction (approximately 30 minutes), the tissues are washed several times until baseline tension has been restored and the re-equilibrated for 30 minutes. The tissues are then incubated for 45 minutes with a test antagonist (either 1×10^-6 M or 1×10^-5 M) or 10 μl of an appropriate solvent control (control, non-treated). One tissue in each group serves as the control. Twenty minutes prior to the construction of the LTD4 cumulative concentration-response curve, L-[…]×10^-2 M final bath concentration) is added to inhibit bioconversion of LTD4 to LTE4. Only one LTD4 concentration-response curve is constructed in each tissue. All responses to LTD4 in an individual tissue are measured as a percentage of the reference contraction of that tissue to carbachol. LTD4 antagonist activity is determined by comparison of the concentration response curves of LTD4 in the presence and absence of antagonist. Assessment of the relative rightward shift of the antagonist treated curve relative to the solvent (control) treated tissue is calculated as a concentration ratio (Eq. A) and used in subsequent calculations to derive an antagonist pKB value (Eqs. B and C). In the vent that the maximum response to LTD4 is depressed, the EC50 for that particular curve is determined, an "apparent" pKB reported, and the compound reported as "not-competitive." [formula] If a compound is found to be active and/or depress the maximal response to LTD4, then a range of concentrations of the test compound should be used generating multiple concentration ratios which would than be used to perform a Schild analysis, and determination of a pA2 value where appropriate.

[2] = 5 min, p.o., 1 hour prior to anti-BSA, rat, read-out: ED50 TxB2
[3] = 10 min, p.o., 1 hour prior to anti-BSA, rat, read-out: ED50 LTB4
[4] = p.o., 1 hour prior to anti-BSA, rat, 5 min
[5] = p.o., 1 hour prior to anti-BSA, rat, 10 min

## O=C1CCN(c2ccccc2)N1 [Phenidone]
[1]; [2]
  ED50: 69 mg/kg
[1]; [3]
  ED50: 10 mg/kg
Pleural inflammation; read-out: ED30 Cellular Influx
  ED30: 23 mg/kg
Pleural inflammation; read-out: ED30 Fluid Exudation
  ED30: 21 mg/kg

## CN1C(C(=O)Nc2ccccn2)=C(O)c2ccccc2S1(=O)=O [Piroxican]
Pleural inflammation; read-out: ED30 Cellular Influx
  ED30: 3 mg/kg
Pleural inflammation; read-out: ED30 Fluid Exudation
  ED30: 1 mg/kg

## COc1ccc2cc([C@H](C)C(=O)O)ccc2c1 [naproxen]
5-lipoxygenase
  inhibition at 10 µM: -94%
cyclooxygenase
  % Inhibition of CO (as PGE2): 85%
[1]; 4 mg/kg p.o., rat
  % Inh LTB4: 0%
[1]; [4]
  ED50 TxB2: 0.24 mg/kg
Pleural inflammation; 8 mg/kg p.o.
  % Inh Cellular Influx: 29%
Pleural inflammation
  ED30 Fluid Exudation: 3.9 mg/kg

## CCCc1c(OCCCCc2nn[nH]n2)ccc(C(C)=O)c1O [Ly-171,883, reference compound]
LTD4
  pKB: 7.44 ± 0.12

## O=C(O)Cc1ccccc1Nc1c(Cl)cccc1Cl [Diclofenac]
[1]; 10 mg/kg p.o., rat
  % Inh LTB4: 0%
[1]; 5 min, read-out: ED50 TxB2
  ED50: 6 mg/kg

## C[C@H](C(=O)O)c1ccc2cc(OCc3ccc4ccccc4n3)ccc2c1.NC(CO)(CO)CO [Wy-50,295-A]
[1]; 75 mg/kg p.o., rat
  % Inh TxB2: 0%
[1]; [5]
  ED50 LTB4: 15 mg/kg

## NC1=NN(c2cccc(C(F)(F)F)c2)CC1 [BW755C]
[1]; [2]
  ED50: 18 mg/kg
[1]; [3]
  ED50: 23 mg/kg
Pleural inflammation; read-out: ED30 Cellular Influx
  ED30: 28 mg/kg
Pleural inflammation; read-out: ED30 Fluid Exudation
  ED30: 14 mg/kg

## CN=C1CCN(c2cccc(C(F)(F)F)c2)N1 [BW540C]
[1]; [4]
  ED50 TxB2: 19 mg/kg
[1]; [5]
  ED50 LTB4: 30 mg/kg

## CC(C(=O)O)c1cccc(C(=O)c2ccccc2)c1 (stereo not shown) [Ketoprofen]
[1]; 10 mg/kg p.o., rat
  % Inh LTB4: 35%
[1]; 5 min, read-out: ED50 TxB2
  ED50: 0.18 mg/kg

## C[C@@H]1C[C@H]2[C@@H]3CCC4=CC(=O)C=C[C@]4(C)[C@@]3(F)[C@@H](O)C[C@]2(C)[C@@]1(O)C(=O)CO [Dexamethasone]
Pleural inflammation
  ED30 Fluid Exudation: 0.05 mg/kg
Pleural inflammation; read-out: ED30 Cellular Influx
  ED30: 0.13 mg/kg

## O=S(=O)(Nc1cccc(OCc2ccc3ccccc3n2)c1)C(F)(F)F [Wy-48,252, reference compound]
LTD4
  pKB: 6.90 ± 0.23
